This note sets out measurements from ChEMBL document CHEMBL2401646 (Bioorg Med Chem Lett, 2013).

≈ marks a conversion by molar mass, not a printed value.

Data set [1] is described as follows: Oral bioavailability in Sprague-Dawley rat at 20 mg/kg. The format is ADME, organism-based. Conditions: in vivo.
A short description of data set [2]: Clearance in Sprague-Dawley rat at 2 mg/kg, iv. Conditions: in vivo. The format is ADME, organism-based. Set-up: dose 2 mg/kg, route intravenous.
The test system of data set [3] is Mus musculus. The data set can be described thus: Toxicity in human U87MG cells xenografted nu/nu CD1 mouse model assessed as body weigh loss at 100 mg/kg, po qd for 14 days. Set-up: dose 100 mg/kg, route oral. Conditions: in vivo, 336 h. The format is organism-based, U-87MG ATCC. On the technique in general: In xenograft studies the graft and the host belong to different species.

Data set [4] concerns Mus musculus. As to the kind of experiment: Toxicity in human U87MG cells xenografted nu/nu CD1 mouse model assessed as body weigh loss at 50 mg/kg, po qd for 14 days. The format is organism-based, U-87MG ATCC. On the set-up: dose 50 mg/kg, route oral. Conditions: in vivo, 336 h.
Data set [5] is described as follows: Protein binding in human plasma by equilibrium dialysis. The data set is classed as ADME, cell-free. Conditions: read-out: PPB (converted). Background: In equilibrium dialysis free small molecules cross a membrane that holds back macromolecules.
For data set [6], the system named is Mus musculus. As to the kind of experiment: Toxicity in human SNU5 cells xenografted nu/nu CD1 mouse model assessed as body weigh loss at 50 mg/kg, po qd for 20 days. Conditions: in vivo, 480 h.
Data set [7] is described as follows: Permeability of the compound at pH 7.4 by PAMPA. The data set is classed as ADME. Conditions: read-out: permeability. A general note: PAMPA measures passive passage across an artificial lipid membrane.
Data set [8] in a line: Antitumor activity against human U87MG cells xenografted in nu/nu CD1 mouse model assessed as maximum tumor regression at 100 mg/kg, po qd for 14 days. The format is functional, U-87MG ATCC.
For data set [9], the target named is Vascular endothelial growth factor receptor 2 (Homo sapiens, UniProt P35968). As to the kind of experiment: Inhibition of KDR autophosphorylation in HUVEC.
Vascular endothelial growth factor receptor 2, sequence (P35968 whole entry): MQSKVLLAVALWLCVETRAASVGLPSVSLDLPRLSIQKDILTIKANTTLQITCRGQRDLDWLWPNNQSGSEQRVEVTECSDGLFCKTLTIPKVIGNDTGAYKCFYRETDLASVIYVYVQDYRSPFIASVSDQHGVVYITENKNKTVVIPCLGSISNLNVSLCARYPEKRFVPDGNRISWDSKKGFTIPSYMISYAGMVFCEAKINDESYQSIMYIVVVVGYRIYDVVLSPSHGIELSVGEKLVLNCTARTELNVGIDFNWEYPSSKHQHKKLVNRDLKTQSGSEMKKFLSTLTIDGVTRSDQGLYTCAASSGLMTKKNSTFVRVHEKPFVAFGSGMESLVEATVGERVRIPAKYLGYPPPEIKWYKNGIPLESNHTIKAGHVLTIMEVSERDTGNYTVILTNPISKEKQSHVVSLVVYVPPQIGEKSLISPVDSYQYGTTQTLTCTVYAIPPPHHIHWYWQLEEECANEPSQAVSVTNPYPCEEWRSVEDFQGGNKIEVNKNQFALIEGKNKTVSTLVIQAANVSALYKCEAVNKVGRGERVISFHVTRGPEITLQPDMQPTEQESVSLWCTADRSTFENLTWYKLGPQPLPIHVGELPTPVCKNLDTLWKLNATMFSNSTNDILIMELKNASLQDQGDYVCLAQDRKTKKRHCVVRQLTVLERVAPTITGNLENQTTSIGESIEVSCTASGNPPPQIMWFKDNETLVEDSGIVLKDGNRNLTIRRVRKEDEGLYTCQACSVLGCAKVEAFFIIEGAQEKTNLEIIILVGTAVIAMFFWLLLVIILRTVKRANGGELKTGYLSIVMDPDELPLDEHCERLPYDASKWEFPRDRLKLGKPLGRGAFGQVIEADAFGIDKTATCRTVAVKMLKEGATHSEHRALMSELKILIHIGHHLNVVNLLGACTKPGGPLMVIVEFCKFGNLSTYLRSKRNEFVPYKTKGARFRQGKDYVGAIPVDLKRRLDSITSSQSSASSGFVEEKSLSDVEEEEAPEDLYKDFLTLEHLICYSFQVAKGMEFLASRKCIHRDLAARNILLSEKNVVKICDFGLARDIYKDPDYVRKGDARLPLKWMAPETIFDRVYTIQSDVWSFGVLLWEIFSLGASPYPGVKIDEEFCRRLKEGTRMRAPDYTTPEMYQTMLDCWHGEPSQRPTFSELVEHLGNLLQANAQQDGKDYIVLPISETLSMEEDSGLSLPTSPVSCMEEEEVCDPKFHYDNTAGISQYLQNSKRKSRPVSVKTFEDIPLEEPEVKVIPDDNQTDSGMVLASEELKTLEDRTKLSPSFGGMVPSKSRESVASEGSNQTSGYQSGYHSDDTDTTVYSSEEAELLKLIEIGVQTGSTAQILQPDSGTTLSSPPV
Data set [10] concerns the target Hepatocyte growth factor receptor (Homo sapiens, UniProt P08581, Y1230C). As to the kind of experiment: Inhibition of cMET Y1230C mutant (unknown origin) autophosphorylation.
The subject of data set [11] is MKN-45. The data set can be described thus: Antiproliferative activity against human MKN45 cells after 3 days by CellTiter-Glo assay. The format is functional, cell-based. Conditions: MKN-45, 72 h.
Data set [12] is described as follows: Solubility of the compound at around physiological pH. The format is physicochemical.
The target in data set [13] is ALK tyrosine kinase receptor (Homo sapiens, UniProt Q9UM73). As to the kind of experiment: Inhibition of ALK autophosphorylation in human Karpas-299 cells. The data set is classed as cell-based.
ALK tyrosine kinase receptor, sequence (Q9UM73 whole entry): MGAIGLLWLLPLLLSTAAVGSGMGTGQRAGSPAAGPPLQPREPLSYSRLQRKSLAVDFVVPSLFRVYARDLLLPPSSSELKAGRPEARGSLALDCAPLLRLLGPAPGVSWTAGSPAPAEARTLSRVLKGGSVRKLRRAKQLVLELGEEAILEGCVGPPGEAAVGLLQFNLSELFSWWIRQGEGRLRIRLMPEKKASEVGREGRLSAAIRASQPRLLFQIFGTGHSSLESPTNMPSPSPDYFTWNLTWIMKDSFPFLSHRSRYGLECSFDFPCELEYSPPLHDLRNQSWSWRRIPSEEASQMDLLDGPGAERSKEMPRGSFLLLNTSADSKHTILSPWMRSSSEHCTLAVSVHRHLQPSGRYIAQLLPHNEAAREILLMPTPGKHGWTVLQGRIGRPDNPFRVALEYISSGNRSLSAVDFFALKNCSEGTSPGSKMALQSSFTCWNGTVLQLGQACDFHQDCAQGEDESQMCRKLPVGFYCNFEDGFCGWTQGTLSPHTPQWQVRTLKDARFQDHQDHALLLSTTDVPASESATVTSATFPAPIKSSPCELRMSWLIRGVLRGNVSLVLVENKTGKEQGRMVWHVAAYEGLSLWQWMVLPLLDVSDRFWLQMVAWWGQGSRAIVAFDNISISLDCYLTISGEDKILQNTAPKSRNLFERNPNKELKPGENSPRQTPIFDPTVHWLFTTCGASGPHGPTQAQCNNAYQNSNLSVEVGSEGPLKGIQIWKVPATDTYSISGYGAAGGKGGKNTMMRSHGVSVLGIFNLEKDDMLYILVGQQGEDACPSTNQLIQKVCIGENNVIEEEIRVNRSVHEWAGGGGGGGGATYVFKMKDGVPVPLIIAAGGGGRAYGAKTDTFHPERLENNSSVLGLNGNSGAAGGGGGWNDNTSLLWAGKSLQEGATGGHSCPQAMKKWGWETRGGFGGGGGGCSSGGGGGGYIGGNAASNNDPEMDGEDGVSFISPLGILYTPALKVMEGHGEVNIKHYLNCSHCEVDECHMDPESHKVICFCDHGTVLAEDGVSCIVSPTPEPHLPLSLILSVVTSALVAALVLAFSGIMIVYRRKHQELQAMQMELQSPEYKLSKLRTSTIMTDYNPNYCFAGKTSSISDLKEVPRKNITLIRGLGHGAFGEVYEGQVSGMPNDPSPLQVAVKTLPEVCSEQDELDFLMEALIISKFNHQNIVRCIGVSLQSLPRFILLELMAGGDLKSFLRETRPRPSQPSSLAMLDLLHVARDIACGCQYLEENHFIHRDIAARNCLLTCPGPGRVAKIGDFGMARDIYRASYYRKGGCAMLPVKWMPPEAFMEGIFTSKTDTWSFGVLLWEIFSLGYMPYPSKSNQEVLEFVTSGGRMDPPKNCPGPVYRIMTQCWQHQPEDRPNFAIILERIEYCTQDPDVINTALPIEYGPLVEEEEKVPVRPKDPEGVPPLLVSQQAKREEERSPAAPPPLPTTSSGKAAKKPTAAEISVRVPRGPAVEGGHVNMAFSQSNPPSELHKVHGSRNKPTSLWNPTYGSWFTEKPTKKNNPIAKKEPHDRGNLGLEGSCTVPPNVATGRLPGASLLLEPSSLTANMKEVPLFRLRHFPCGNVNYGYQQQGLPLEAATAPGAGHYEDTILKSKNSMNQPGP
Data set [14] concerns Mus musculus. The data set can be described thus: Inhibition of MET autophosphorylation at Y1234/1235 in human MKN45 cells xenografted in mouse at 100 mg/kg, po up to 8 hrs. The format is functional. Conditions: MKN-45, 8 h.
Data set [15] deals with SNU-5. The data set can be described thus: Antitumor activity against human SNU5 cells xenografted in nu/nu CD1 mouse model assessed as tumor growth inhibition at 100 mg/kg, po qd for 20 days. Conditions: SNU-5, po, 480 h, read-out: TGI.
In data set [16] the test system is MKN-45. The data set can be described thus: Antitumor activity against human MKN45 cells xenografted in po dosed nu/nu CD1 mouse model assessed as tumor growth inhibition administered qd for 14 days. The format is functional. Conditions: MKN-45, po, 336 h.
Data set [17] concerns the target Macrophage-stimulating protein receptor (Homo sapiens, UniProt Q04912). As to the kind of experiment: Inhibition of short-form RON (unknown origin) expressed in human HeLa cells assessed as phosphorylated RON levels after 4 hrs. The format is cell-based.
A short description of data set [18]: Volume of distribution at steady state in Sprague-Dawley rat at 2 mg/kg, iv. The data set is classed as ADME, organism-based. Set-up: dose 2 mg/kg, route intravenous. Conditions: in vivo, read-out: Vdss.
Data set [19] relates to Mus musculus. The data set can be described thus: Toxicity in human U87MG cells xenografted nu/nu CD1 mouse model assessed as body weigh loss at 100 mg/kg, po bid for 14 days. The format is organism-based, U-87MG ATCC. Set-up: dose 100 mg/kg, route oral. Conditions: in vivo, 336 h.
Data set [20] relates to Mus musculus. As to the kind of experiment: Toxicity in human SNU5 cells xenografted nu/nu CD1 mouse model assessed as body weigh loss at 100 mg/kg, po qd for 20 days. Conditions: in vivo, 480 h.
Another data set has as its target Aurora kinase B (Homo sapiens, UniProt Q96GD4). As to the kind of experiment: Inhibition of aurora-B (unknown origin) autophosphorylation.
The subject of data set [21] is SNU-5. The data set can be described thus: Antitumor activity against human SNU5 cells xenografted in nu/nu CD1 mouse model assessed as maximum tumor regression at 200 mg/kg, po qd for 20 days.
For data set [22], the system named is SNU-5. As to the kind of experiment: Antitumor activity against human SNU5 cells xenografted in nu/nu CD1 mouse model assessed as maximum tumor regression at 100 mg/kg, po qd for 20 days.

Aurora kinase B, sequence (Q96GD4 whole entry): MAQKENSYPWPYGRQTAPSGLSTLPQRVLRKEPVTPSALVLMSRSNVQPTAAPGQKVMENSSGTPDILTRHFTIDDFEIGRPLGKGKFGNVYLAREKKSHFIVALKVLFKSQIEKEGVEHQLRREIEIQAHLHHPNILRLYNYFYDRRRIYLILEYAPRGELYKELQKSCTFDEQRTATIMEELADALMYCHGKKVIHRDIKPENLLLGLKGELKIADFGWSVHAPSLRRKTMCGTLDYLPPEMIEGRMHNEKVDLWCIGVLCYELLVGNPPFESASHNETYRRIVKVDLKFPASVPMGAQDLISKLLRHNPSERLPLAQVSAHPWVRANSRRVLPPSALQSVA
Macrophage-stimulating protein receptor, sequence (Q04912 25-304 limits assumed): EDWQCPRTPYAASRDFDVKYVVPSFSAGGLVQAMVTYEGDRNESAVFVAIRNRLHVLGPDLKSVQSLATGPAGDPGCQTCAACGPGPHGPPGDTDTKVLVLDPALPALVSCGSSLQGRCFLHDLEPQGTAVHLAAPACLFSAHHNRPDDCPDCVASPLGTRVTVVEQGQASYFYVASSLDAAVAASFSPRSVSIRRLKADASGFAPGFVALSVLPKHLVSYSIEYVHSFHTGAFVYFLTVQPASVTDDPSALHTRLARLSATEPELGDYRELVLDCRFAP
Macrophage-stimulating protein receptor, sequence (Q04912 310-1400 limits assumed): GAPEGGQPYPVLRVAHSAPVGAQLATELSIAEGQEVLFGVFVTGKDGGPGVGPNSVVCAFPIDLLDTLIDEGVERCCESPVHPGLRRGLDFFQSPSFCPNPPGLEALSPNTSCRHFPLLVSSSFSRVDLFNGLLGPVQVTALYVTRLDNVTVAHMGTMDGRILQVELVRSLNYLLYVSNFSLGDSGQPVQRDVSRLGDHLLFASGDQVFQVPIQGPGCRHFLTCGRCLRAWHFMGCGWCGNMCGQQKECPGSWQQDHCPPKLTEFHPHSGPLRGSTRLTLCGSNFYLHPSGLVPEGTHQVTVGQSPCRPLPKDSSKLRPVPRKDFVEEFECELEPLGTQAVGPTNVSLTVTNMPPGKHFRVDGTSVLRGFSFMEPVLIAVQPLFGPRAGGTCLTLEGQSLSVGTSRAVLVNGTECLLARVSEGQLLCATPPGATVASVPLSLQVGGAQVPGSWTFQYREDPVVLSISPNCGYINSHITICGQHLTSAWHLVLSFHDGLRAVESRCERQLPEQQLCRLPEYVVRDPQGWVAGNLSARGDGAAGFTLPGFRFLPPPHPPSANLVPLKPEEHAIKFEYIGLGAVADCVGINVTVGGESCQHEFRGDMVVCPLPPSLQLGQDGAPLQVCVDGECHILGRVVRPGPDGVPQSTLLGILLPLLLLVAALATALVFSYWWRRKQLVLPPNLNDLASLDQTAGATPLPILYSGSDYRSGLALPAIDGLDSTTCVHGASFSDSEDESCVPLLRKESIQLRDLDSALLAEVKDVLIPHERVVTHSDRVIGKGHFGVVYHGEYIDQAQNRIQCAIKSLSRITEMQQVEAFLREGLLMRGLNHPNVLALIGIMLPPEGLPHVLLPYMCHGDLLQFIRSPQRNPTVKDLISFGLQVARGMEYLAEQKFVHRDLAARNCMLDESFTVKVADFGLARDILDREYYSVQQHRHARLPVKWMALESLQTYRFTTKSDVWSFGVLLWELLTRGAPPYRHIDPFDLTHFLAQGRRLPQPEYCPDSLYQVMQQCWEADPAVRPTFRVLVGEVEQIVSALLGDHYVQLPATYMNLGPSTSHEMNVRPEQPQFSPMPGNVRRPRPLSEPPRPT

Turning to `C[C@@H](Oc1c(N)ncc2c(C3=CCN(C(N)=O)CC3)coc12)c1c(Cl)ccc(F)c1Cl`, in data set [1], the bioavailability (as a rule, the share of a dose that reaches the circulation, judged against a reference dose that is usually intravenous) turned out to be 72%. In addition, the clearance (as a rule, a measure of how efficiently the substance is removed, as volume per time) in data set [2] was 39 mL/min/kg. Further, the Activity in the data set with Mus musculus [3] came to 0%; with Mus musculus [4], 0%; in the data set on Mus musculus [6] it was 4%; in [8] it was 0%; in the data set on Mus musculus [19], 0%; in the data set on Mus musculus [20] it was 2%. The Activity in the data set with SNU-5 [21] is given as 80%; with SNU-5 [22], 64%. The fraction unbound in data set [5] is 0.019. For the same molecule, the Papp in data set [7] turned out to be 359 ×10⁻⁶ cm/s. In addition, the IC50 (usually the concentration that gives 50% inhibition) in data set [9] stood at 6100 nM; in data set [10], 72 nM; with MKN-45 [11] it was 130 nM; in data set [13], 500 nM; in data set [17] it was 200 nM; against Aurora kinase B, 11 nM. Also, in data set [12], the solubility – broadly, the dissolved amount per volume that the medium holds – is 1 µM (≈ 0.465 µg/mL). Moreover, the inhibition in vivo at 100 mg/kg is more than 80% with Mus musculus [14] and 100% in the data set with SNU-5 [15]. Also, the 50% effective dose (ED50) (as a rule, the dose at which the effect has come halfway, by size or by number of responders) with MKN-45 [16] was found to be 50 mg/kg. The Vd in data set [18] turned out to be 6.8 L/kg.
